For data set [1] the following is noted: background statement; cited from earlier work.
Data set [2] in a line: Complex stability at human body temperature in the dark (1H NMR in D2O, 37° C.). Type of data set: physicochemical. As to conditions: for Conversion of Ru compounds into their aqua complexes: +37° C. How it is done:
D2O (0.80 mL) was added to each of the NMR tubes and ^1H NMR spectra were taken. The NMR tubes were put into closed pressure tubes and kept in the dark at 37° C. to check the stability of the Ru—Cl and Ru—S bond. ^1H NMR spectra of each of the tubes were taken after 4 hours, 1 day, 3 days and 3 weeks. The NMR tubes were kept in an ice bath during transport in order to temporarily freeze the reaction. In the case of [Ru(terpy)(bpy)(Cl)](Cl), an equilibrium had been reached after four hours, characterized by 10% of [Ru(terpy)(bpy)(Cl)](Cl) and 90% of [Ru(terpy)(bpy)(H2O)](Cl)2.
The stability of the Ru—S bond was measured at human body temperature and in the dark. To do so, compound [Ru(tpy)(apy)Cl]Cl, and [Ru(tpy)(apy)(AMet)]Cl2, (compound [13](Cl)2) were dissolved in D2O and kept in the dark at 37° C. The release of the aqua species was measured by ^1H NMR after 4 hours, 1 days, and 3 weeks. […] The stability of the Ru—S bond depends on the nature of the polypyridyl ligands (see Example 2), but in general it is much higher than that of the Ru—Cl bond.

The subject of a further data set is HepG2 cancer cells. Put plainly: WST-1 cell viability test in the dark. Type of data set: cell-based. As to conditions: 1.7 mM, 30 min in the dark, WST-1 normalized to protein content. How it is done: HepG2 cancer cells were grown in RPMI 1640 medium containing (−) L-glutamine at 37° C. and in an atmosphere of […] and 5% CO2. […] In this experiment, the difference in water solubility between the chlorido and thioether complexes might also play a role, as uptake might be different for both compounds.
(In general: Tetrazolium dyes change colour on reduction, which living cells bring about.)

Data set [3] in a line: Light-induced cleavage of the Ru-S bond in aqueous solution. Type of data set: physicochemical.
The mark [4] stands for this setting: 37° C., equilibrium after four hours.

For the molecule `[Cl-].[Cl-].[Cl-].[Ru+3].c1ccc(-c2cccc(-c3ccccn3)n2)nc1` [mer-[Ru(terpy)(Cl)3]], in data set [1], the solubility in water entry is recorded as “poorly soluble in water”.
Take `[Cl-].[Cl-].[Ru+2].c1ccc(N=Nc2ccccn2)cc1.c1ccc(N=Nc2ccccn2)cc1` [α-[Ru(azpy)2(Cl)2]]: in data set [1], the solubility in water result is listed as “poorly soluble in water”.
As to “[Ru(terpy)(apy)(Cl)](Cl) [[Ru(tpy)(apy)(Cl)](Cl)]”, the “Conversion of Ru compounds into their aqua complexes” value in data set [2] (3 weeks), in data set [2] (4 h) and in data set [2] (1 day) was 48% throughout.
As to [Ru(terpy)(bpy)(Cl)](Cl), in data set [2] (setting [4]), the “aqua complex [Ru(terpy)(bpy)(H2O)](Cl)2 at equilibrium” value came to 90% and the “starting chlorido complex at equilibrium” value is reported as 10%. Further, the “cell survival reduced by” value in the data set on HepG2 cancer cells came out at 49%.
With “[Ru(terpy)(bpy)(D-biotin)](Cl)2 [Compound [7](Cl)2]”, in the data set on HepG2 cancer cells, the “cell survival reduced by” value was “not reduced”.
As for “[Ru(terpy)(bpy)(mte)](BF4)2 [Compound [9](BF4)2]”, the “photosubstitution of the monodentate sulfur ligand” value in data set [3] (white light, aqueous solution) was “photosubstituted by an aqua ligand”.
Take “[Ru(tpy)(apy)(AMet)]Cl2 [Compound [13](Cl)2]”: the “Conversion of Ru compounds into their aqua complexes” value in data set [2] (3 weeks) is given as 46%; in data set [2] (4 h), “no sign of cleavage”; in data set [2] (4 h, listed as [Ru(tpy)(apy)(AMet)](Cl)2) it was 0%; in data set [2] (1 day), 21%. Besides, the “photochemical cleavage of the Ru-S bond” value in data set [3] (visible light, D2O, 1H NMR and thin layer chromatography) is on record as “photochemically labile”.

The record behind these values is patent US9255118B2, “Light induced drug release” (UNIVERSITEIT LEIDEN, priority 2010, dated 2016).
